Source: the supplement of paper PMC10307832

How the values were obtained:
Experiment in all cases: relative viability (nuclei count vs DMSO), 5 days (fraction); higher = more cells survive
NCI-H1734 = system: NCI-H1734
Summary of the method: (§1)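 A single step with final 0.05% Triton X-100, 1% formaldehyde and 1 ug/ml Hoechst fixed the cells and stained nuclei 5 days after treatment. Lung cancer cell lines in 1536-well plates had been treated by pin tool the day after seeding with one drug alone or a fixed anchor-drug dose plus five library-drug doses (not always all listed) in √10 steps, and nuclei were counted on 4× images. Relative viability is the ratio of nuclei in treated wells to nuclei in vehicle wells, taken as the median of duplicate plates.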

EKVX = system: EKVX
Summary of the method: as §1

NCI-H838 = system: NCI-H838
Summary of the method: as §1

SK-MES-1 = system: SK-MES-1
Summary of the method: as §1

NCI-H520 = system: NCI-H520
Summary of the method: as §1

NCI-H1993 = system: NCI-H1993
Summary of the method: as §1

ABC-1 = system: ABC-1
Summary of the method: as §1

UMC-11 = system: UMC-11
Summary of the method: as §1

NCI-H1355 = system: NCI-H1355
Summary of the method: as §1

H3255 = system: H3255
Summary of the method: as §1

SK-LU-1 = system: SK-LU-1
Summary of the method: as §1

NCI-H2009 = system: NCI-H2009
Summary of the method: as §1

LC-2-ad = system: LC-2-ad
Summary of the method: as §1

NCI-H1650 = system: NCI-H1650
Summary of the method: as §1

EMC-BAC-2 = system: EMC-BAC-2
Summary of the method: as §1

SW 1573 = system: SW 1573
Summary of the method: as §1

NCI-H2087 = system: NCI-H2087
Summary of the method: as §1

NCI-H661 = system: NCI-H661
Summary of the method: as §1

LU99A = system: LU99A
Summary of the method: as §1

CAL-12T = system: CAL-12T
Summary of the method: as §1

BEN = system: BEN
Summary of the method: as §1

NCI-H2085 = system: NCI-H2085
Summary of the method: as §1

NCI-H2342 = system: NCI-H2342
Summary of the method: as §1

SMILES: Nc1cccc2c1CN(C1CCC(=O)NC1=O)C2=O (centres undefined) [Lenalidomide] + COc1cc2c(Oc3ccc(NC(=O)C4(C(=O)Nc5ccc(F)cc5)CC4)cc3F)ccnc2cc1OCCCN1CCOCC1 [Foretinib] (partner 0.25 µM)
- relative viability (NCI-H1734; first compound 0.253 µM): 0.894
- relative viability (NCI-H1734; first compound 0.8 µM): 0.776
- relative viability (NCI-H1734; first compound 2.53 µM): 0.932
- relative viability (NCI-H1734; first compound 8 µM): 0.809
- relative viability (EKVX; first compound 0.253 µM): 0.806
- relative viability (EKVX; first compound 0.8 µM): 0.772
- relative viability (EKVX; first compound 2.53 µM): 0.46
- relative viability (EKVX; first compound 8 µM): 0.932
- relative viability (NCI-H838; first compound 0.253 µM): 1.11
- relative viability (NCI-H838; first compound 0.8 µM): 0.965
- relative viability (NCI-H838; first compound 2.53 µM): 1.15
- relative viability (NCI-H838; first compound 8 µM): 1.2
- relative viability (SK-MES-1; first compound 0.253 µM): 0.944
- relative viability (SK-MES-1; first compound 0.8 µM): 0.991
- relative viability (SK-MES-1; first compound 2.53 µM): 1.02
- relative viability (SK-MES-1; first compound 8 µM): 0.844
- relative viability (NCI-H520; first compound 0.253 µM): 0.805
- relative viability (NCI-H520; first compound 0.8 µM): 0.627
- relative viability (NCI-H520; first compound 2.53 µM): 0.875
- relative viability (NCI-H520; first compound 8 µM): 0.711
- relative viability (NCI-H1993; first compound 0.253 µM): 0.739
- relative viability (NCI-H1993; first compound 0.8 µM): 0.658
- relative viability (NCI-H1993; first compound 2.53 µM): 0.775
- relative viability (NCI-H1993; first compound 8 µM): 0.707
- relative viability (ABC-1; first compound 0.253 µM): 0.977
- relative viability (ABC-1; first compound 0.8 µM): 1.19
- relative viability (ABC-1; first compound 2.53 µM): 1.14
- relative viability (ABC-1; first compound 8 µM): 0.811
- relative viability (UMC-11; first compound 0.253 µM): 1.02
- relative viability (UMC-11; first compound 0.8 µM): 1.07
- relative viability (UMC-11; first compound 2.53 µM): 1.06
- relative viability (UMC-11; first compound 8 µM): 0.953
- relative viability (NCI-H1355; first compound 0.253 µM): 0.973
- relative viability (NCI-H1355; first compound 2.53 µM): 0.901
- relative viability (NCI-H1355; first compound 8 µM): 0.808
- relative viability (H3255; first compound 0.253 µM): 0.733
- relative viability (H3255; first compound 0.8 µM): 0.825
- relative viability (H3255; first compound 2.53 µM): 0.95
- relative viability (H3255; first compound 8 µM): 0.727
- relative viability (SK-LU-1; first compound 0.253 µM): 0.71
- relative viability (SK-LU-1; first compound 0.8 µM): 0.727
- relative viability (SK-LU-1; first compound 2.53 µM): 1.02
- relative viability (SK-LU-1; first compound 8 µM): 0.802
- relative viability (NCI-H2009; first compound 0.253 µM): 1.24
- relative viability (NCI-H2009; first compound 0.8 µM): 1.23
- relative viability (NCI-H2009; first compound 2.53 µM): 1.32
- relative viability (NCI-H2009; first compound 8 µM): 1.22
- relative viability (LC-2-ad; first compound 0.253 µM): 0.92
- relative viability (LC-2-ad; first compound 2.53 µM): 1.05
- relative viability (LC-2-ad; first compound 8 µM): 0.96
- relative viability (NCI-H1650; first compound 0.8 µM): 1.46
- relative viability (NCI-H1650; first compound 2.53 µM): 1.18
- relative viability (NCI-H1650; first compound 8 µM): 1.37
- relative viability (EMC-BAC-2; first compound 0.253 µM): 1
- relative viability (EMC-BAC-2; first compound 0.8 µM): 0.967
- relative viability (EMC-BAC-2; first compound 2.53 µM): 1.04
- relative viability (EMC-BAC-2; first compound 8 µM): 0.885
- relative viability (SW 1573; first compound 0.253 µM): 0.971
- relative viability (SW 1573; first compound 0.8 µM): 1.15
- relative viability (SW 1573; first compound 2.53 µM): 0.95
- relative viability (SW 1573; first compound 8 µM): 0.877
- relative viability (NCI-H2087; first compound 0.253 µM): 0.801
- relative viability (NCI-H2087; first compound 0.8 µM): 1.17
- relative viability (NCI-H2087; first compound 2.53 µM): 1.17
- relative viability (NCI-H2087; first compound 8 µM): 1.28
- relative viability (NCI-H661; first compound 0.253 µM): 0.996
- relative viability (NCI-H661; first compound 0.8 µM): 0.983
- relative viability (NCI-H661; first compound 2.53 µM): 1.01
- relative viability (NCI-H661; first compound 8 µM): 0.994
- relative viability (LU99A; first compound 0.253 µM): 0.831
- relative viability (LU99A; first compound 0.8 µM): 0.789
- relative viability (LU99A; first compound 2.53 µM): 0.761
- relative viability (LU99A; first compound 8 µM): 0.599
- relative viability (CAL-12T; first compound 0.253 µM): 1.21
- relative viability (CAL-12T; first compound 0.8 µM): 1.22
- relative viability (CAL-12T; first compound 2.53 µM): 1.23
- relative viability (CAL-12T; first compound 8 µM): 1.29
- relative viability (BEN; first compound 0.253 µM): 0.822
- relative viability (BEN; first compound 0.8 µM): 0.583
- relative viability (BEN; first compound 2.53 µM): 0.812
- relative viability (BEN; first compound 8 µM): 0.409
- relative viability (NCI-H2085; first compound 0.253 µM): 1.04
- relative viability (NCI-H2085; first compound 0.8 µM): 1.11
- relative viability (NCI-H2085; first compound 2.53 µM): 0.929
- relative viability (NCI-H2085; first compound 8 µM): 1.07
- relative viability (NCI-H2342; first compound 0.253 µM): 1.08
- relative viability (NCI-H2342; first compound 0.8 µM): 1.01
- relative viability (NCI-H2342; first compound 2.53 µM): 1.11
- relative viability (NCI-H2342; first compound 8 µM): 0.898
